# Legend:
# DLD1 NRF2-GOF [1] = assay: drug sensitivity score (DSS) viability (DSS score); higher = more sensitive; extreme values may be limits of the assay; conditions: 72 h; CellTiter-Glo viability
# Method in brief: (§1)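 DLD1 colorectal cancer cells, an isogenic pair either NRF2 wild-type or carrying a CRISPR gain-of-function, were cultured in DMEM with 10% FBS and treated in 384-well plates with library compounds at 5 concentrations across a 10,000-fold range. CellTiter-Glo viability was read on a Pherastar FS reader after 72 h and normalised to vehicle wells and 100-μM positive-control wells. Four-parameter logistic dose-response fits were applied. EC50 and drug sensitivity score, a normalised area under the curve, were taken from these fits.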
# DLD1 NRF2-WT [2] = assay: as above; conditions: 72 h; CellTiter-Glo viability
# Method in brief: as §1
# DLD1 NRF2-GOF [3] = assay: TC50 cytotoxicity; higher = less toxic; conditions: 72 h; CellTox Green cytotoxicity
# Method in brief: (§2)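 Isogenic DLD1 colorectal cancer cells differing in NRF2 status, one line edited by CRISPR, were cultured in DMEM with 10% FBS and treated in 384-well plates with library compounds at 5 concentrations spanning a 10,000-fold range. Plates were read after 72 h with CellTox Green on a Pherastar FS reader, and signals were normalised to vehicle wells and 100-μM positive-control wells. Cytotoxicity was summarised as TC50 and as a drug sensitivity score, a normalised area under the curve, both from logistic dose-response fits.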
# DLD1 NRF2-WT [4] = assay: TC50 cytotoxicity; higher = less toxic; conditions: 72 h; CellTox Green cytotoxicity
# Method in brief: as §2
# DLD1 NRF2-GOF [5] = assay: drug sensitivity score (DSS) cytotoxicity (DSS score); higher = more toxic; extreme values may be limits of the assay; conditions: 72 h; CellTox Green cytotoxicity
# Method in brief: as §2
# DLD1 NRF2-WT [6] = assay: as above; conditions: 72 h; CellTox Green cytotoxicity
# Method in brief: as §2
# DLD1 NRF2-GOF [7] = conditions: 72 h; CellTiter-Glo viability
# Method in brief: as §1
# DLD1 NRF2-WT [8] = conditions: 72 h; CellTiter-Glo viability
# Method in brief: as §1
EC50 viability (DLD1 NRF2-GOF [7]),EC50 viability (DLD1 NRF2-WT [8]),Structure (SMILES),drug sensitivity score (DLD1 NRF2-GOF [1]),drug sensitivity score (DLD1 NRF2-WT [2]),TC50 cytotoxicity (DLD1 NRF2-GOF [3]),TC50 cytotoxicity (DLD1 NRF2-WT [4]),drug sensitivity score (DLD1 NRF2-GOF [5]),drug sensitivity score (DLD1 NRF2-WT [6])
> 10 µM,0.62 µM,Cc1sc2c(c1C)C(c1ccc(Cl)cc1)=N[C@@H](CC(=O)NCCCCNC(=O)COc1cccc3c1C(=O)N(C1CCC(=O)NC1=O)C3=O)c1nnc(C)n1-2 (stereo partly specified) [dBET1],0.7,6.5,> 10 µM,> 10 µM,0,0
> 10 µM,> 10 µM,FC(F)(F)c1ccc(CNc2ccc(Cc3c[nH]c4ncc(Cl)cc34)cn2)cn1 [Pexidartinib],0.9,0,> 10 µM,> 10 µM,0,0
3.42 µM,3.55 µM,COc1cc(N2CCC(N3CCN(C)CC3)CC2)ccc1Nc1ncnc(Nc2ccccc2S(=O)(=O)C(C)C)n1 [ASP3026],3,3.3,> 10 µM,> 10 µM,0,0
2.09 µM,2.28 µM,Cc1cc(Nc2cc(CN3CCOCC3)c3nc(C)c(Cc4ccc(Cl)cc4F)n3n2)n[nH]1 [Gandotinib],6.2,5,1.62 µM,1.89 µM,6.1,2.8
> 1 µM,> 1 µM,CCN(CC)CCN(Cc1ccc(-c2ccc(C(F)(F)F)cc2)cc1)C(=O)Cn1c(SCc2ccc(F)cc2)nc(=O)c2c1CCC2 [Darapladib],4.1,0,> 1 µM,> 1 µM,0,0
0.387 µM,0.412 µM,COC(=O)N[C@@H](C)CNc1nccc(-c2cn(C(C)C)nc2-c2cc(Cl)cc(NS(C)(=O)=O)c2F)n1 [Encorafenib],1.3,1.1,> 1 µM,> 1 µM,0,0
> 30 µM,1.94 µM,COc1ccccc1S(=O)(=O)Nc1ccc2c(c1)CN(C)C(=O)N2 [PFI-1],0,3.2,> 30 µM,> 30 µM,0,0
> 2.5 µM,> 2.5 µM,CC(O)c1cc(C(=O)N[C@@H](C)Cn2ccc(-c3ccc(C#N)c(Cl)c3)n2)n[nH]1 (stereo partly specified) [ODM-201],0.9,0.2,> 2.5 µM,> 2.5 µM,0,0
> 10 µM,> 10 µM,Cc1ccc(-n2nc(C(C)(C)C)cc2NC(=O)Nc2ccc(OCCN3CCOCC3)c3ccccc23)cc1 [Doramapimod],0,0,> 10 µM,> 10 µM,0,0
0.163 µM,1.8 µM,Cc1ccc(NC(=O)c2ccc(CN3CCN(C)CC3)cc2)cc1Nc1nc(-c2cccnc2)cs1 [Masitinib],14.3,6.7,> 10 µM,> 10 µM,0,0
0.499 µM,0.88 µM,CO[C@@H]1[C@H](N(C)C(=O)c2ccccc2)C[C@H]2O[C@]1(C)n1c3ccccc3c3c4c(c5c6ccccc6n2c5c31)C(=O)NC4 [Midostaurin],12.4,9.8,0.801 µM,0.686 µM,12.9,12.4
0.832 µM,0.582 µM,CN(C)Cc1c(C(=O)NCCOc2ccc(C(=O)NO)cc2)oc2ccccc12 [Abexinostat],10.4,14,> 10 µM,1.25 µM,0.7,7.5
0.0533 µM,0.108 µM,CCS(=O)(=O)c1cccc(-c2cc(C(=O)NC3CCN(C)CC3)c(C)c3[nH]c4ncc(C)cc4c23)c1 [TAK-901],11.2,7.8,0.0837 µM,> 1 µM,5.6,2.2
0.552 µM,0.874 µM,Cn1cc(C[C@@H](N)C(=O)O)c2ccccc21 [1-methyl-D-tryptophan],3.2,2.3,> 5 µM,> 5 µM,0,0
0.983 µM,> 10 µM,Cc1cn(-c2cc(NC(=O)c3ccc(C)c(Nc4nccc(-c5cccnc5)n4)c3)cc(C(F)(F)F)c2)cn1 [Nilotinib],4,2.5,> 10 µM,> 10 µM,0,0
> 10 µM,> 10 µM,CCCCOc1nc(N)c2c(n1)N(Cc1cccc(CN3CCCC3)c1)CC(=O)N2 [Vesatolimod],0.1,0,> 10 µM,> 10 µM,0,0
1.34 µM,0.771 µM,O=C(Nc1cc(Cl)cc2c1[nH]c1cnccc12)c1cccnc1 [PS-1145],5.2,6.2,> 25 µM,> 25 µM,0,0
0.242 µM,0.164 µM,O=C1NC(=O)[C@@H](c2cn3c4c(cccc24)CCC3)[C@@H]1c1c[nH]c2ccccc12 [Tivantinib],5,6.7,> 1 µM,> 1 µM,0.9,1.4
> 10 µM,> 10 µM,CCOCc1nc2c(N)nc3ccccc3c2n1CC(C)(C)O [Resiquimod],0.6,0.7,> 10 µM,> 10 µM,0,0
0.0921 µM,0.357 µM,CO[C@@H](C(=O)N1Cc2[nH]nc(NC(=O)c3ccc(N4CCN(C)CC4)cc3)c2C1)c1ccccc1 [Danusertib],16.6,10.4,> 10 µM,> 10 µM,0,2.4
2.87 µM,1.5 µM,CCn1c(-c2nonc2N)nc2c(C#CC(C)(C)O)ncc(OC[C@H]3CCCNC3)c21,2.4,4.3,> 10 µM,> 10 µM,0,0

EC50 viability (DLD1 NRF2-GOF [7]),EC50 viability (DLD1 NRF2-WT [8]),Structure (SMILES),drug sensitivity score (DLD1 NRF2-GOF [1]),drug sensitivity score (DLD1 NRF2-WT [2]),TC50 cytotoxicity (DLD1 NRF2-GOF [3]),TC50 cytotoxicity (DLD1 NRF2-WT [4]),drug sensitivity score (DLD1 NRF2-GOF [5]),drug sensitivity score (DLD1 NRF2-WT [6])
0.0219 µM,0.0555 µM,O=C(Nc1c[nH]nc1-c1nc2ccc(CN3CCOCC3)cc2[nH]1)NC1CC1 [AT9283],15.1,8.6,0.0267 µM,> 1 µM,9.8,2.6
> 10 µM,> 10 µM,Cc1cn(-c2cc(NC(=O)c3ccc(C)c(Nc4nccc(-c5cnccn5)n4)c3)cc(C(F)(F)F)c2)cn1 [Radotinib],0.4,0,> 10 µM,> 10 µM,0.3,0
0.477 µM,0.65 µM,Nc1ccn([C@@H]2O[C@H](CO)[C@@H](O)[C@@H]2O)c(=O)n1 [Cytarabine],6.5,5,> 10 µM,> 10 µM,0,0
0.0017 µM,> 1 µM,O=C(O)CC[C@H]1CC[C@@](c2cc(F)ccc2F)(S(=O)(=O)c2ccc(Cl)cc2)CC1 [MK-0752],9.1,0.7,> 1 µM,> 1 µM,0,0
0.0396 µM,0.0822 µM,C=CC(=O)Nc1cccc(Nc2nc(Nc3ccc(OCCOC)cc3)ncc2F)c1 [Spebrutinib],6.5,3.2,> 1 µM,> 1 µM,0,0
> 10 µM,> 10 µM,O=C(NC[C@H](O)CN1CCc2ccccc2C1)c1cc(NC2COC2)ncn1,2.4,3,> 10 µM,> 10 µM,0,0
1.78 µM,1.59 µM,COc1cc(N2CCN(C)CC2)ccc1Nc1nccc(-c2cn(C)c3cnccc23)n1 [AZ191],5.2,7,> 10 µM,> 10 µM,0,0.3
0.349 µM,> 10 µM,N#Cc1ccnc(N2C(=O)CC[C@H]2C(=O)N(c2cncc(F)c2)[C@H](C(=O)NC2CC(F)(F)C2)c2ccccc2Cl)c1 [Ivosidenib],6.1,0.5,> 10 µM,> 10 µM,0,0
0.0545 µM,0.0707 µM,CC(=O)c1cnc2ccc(-c3cc(Cl)c(O)c(Cl)c3)nc2c1N[C@H]1CC[C@H](CN(C)C)CC1 [OTS167],13,12.8,> 1 µM,> 1 µM,3,0.6
> 10 µM,1.57 µM,C[C@]1(c2nc3c(C(N)=O)cccc3[nH]2)CCCN1 [Veliparib],0,2.9,> 10 µM,> 10 µM,0,0
0.323 µM,0.202 µM,O=C(/C=C\n1cnc(-c2cc(C(F)(F)F)cc(C(F)(F)F)c2)n1)NNc1cnccn1 [Selinexor],15.5,16.7,> 10 µM,> 10 µM,2.5,1.5
0.247 µM,0.0964 µM,COc1cc2ncnc(Nc3ccc(F)c(Cl)c3)c2cc1NC(=O)/C=C/CN1CCCCC1 [Dacomitinib],2.4,5.9,> 1 µM,> 1 µM,0,0
2.58 µM,3.22 µM,CCCCCCCCc1ccc(CCC(N)(CO)CO)cc1 [Fingolimod],6.7,5.5,2.73 µM,2.42 µM,6.4,5.6
0.305 µM,0.102 µM,CCOc1cc2ncc(C#N)c(Nc3ccc(OCc4ccccn4)c(Cl)c3)c2cc1NC(=O)/C=C/CN(C)C [Neratinib],2.2,5.7,> 1 µM,> 1 µM,0,0
0.0253 µM,0.0071 µM,COc1ncc(-c2ccc3nccc(-c4ccnnc4)c3c2)cc1NS(=O)(=O)c1ccc(F)cc1F [Omipalisib],12.6,18.7,> 1 µM,> 1 µM,0,0
0.0046 µM,0.0064 µM,CON(C)C(=O)N1N=C(c2cc(F)ccc2F)S[C@@]1(CCCN)c1ccccc1 [Filanesib],18.6,21.5,> 1 µM,> 1 µM,6.2,5.3
0.0546 µM,0.0519 µM,COC(=O)C[C@](O)(CCCC(C)(C)O)C(=O)O[C@@H]1C(OC)=C[C@]23CCCN2CCc2cc4c(cc2[C@H]13)OCO4 [Omacetaxine],26.9,27.6,0.329 µM,0.346 µM,8.4,10.1
> 1 µM,0.0117 µM,Cc1nc(-c2cn3c(n2)-c2ccc(-c4cnn(C(C)(C)C(N)=O)c4)cc2OCC3)n(C(C)C)n1 [Taselisib],0.9,5.5,> 1 µM,> 1 µM,0,0.4
0.0478 µM,0.0279 µM,COc1cc(Nc2ncc3c(n2)-c2ccc(Cl)cc2C(c2c(F)cccc2OC)=NC3)ccc1C(=O)O [Alisertib],15.9,10.3,0.205 µM,0.939 µM,6.6,2.8
> 1 µM,> 1 µM,CCCc1cc(C)[nH]c(=O)c1CNC(=O)c1cc(-c2ccnc(N3CCN(C)CC3)c2)cc2c1cnn2C(C)C [GSK343],0,0,> 1 µM,> 1 µM,0,0
0.169 µM,0.46 µM,CN(C)C(=O)c1cc2cnc(Nc3ccc(N4CCNCC4)cn3)nc2n1C1CCCC1 [Ribociclib],6.8,8.2,> 10 µM,> 10 µM,0,0

# — the supplement of paper PMC7600603
